The text below walks through data of article PMC4537050, “A long pentraxin-3-derived pentapeptide for the therapy of FGF8b-driven steroid hormone-regulated cancers” (Oncotarget, 2015).

For data set [1], the system named is S115 cells grafted onto the chick embryo CAM. As to the kind of experiment: CAM assay with DHT-treated S115 cell grafts. Particulars: 2.5 × 10^4 cells/embryo; ARPCA 80 or 140 pmoles/embryo, ARPVA 140 pmoles/embryo; day 14. Format: in vivo. As for the experimental part:
Alginate plugs containing vehicle, FGF8b (4.5 pmoles/embryo), VEGF-A (4.5 pmoles/embryo) or S115 cells (2.5×10^4/embryo) in the absence or presence of ARPCA (80 or 140 pmoles/embryo) or ARPVA (140 pmoles/embryo) were placed on the CAM of fertilized white leghorn chicken eggs at day 11 of incubation. At day 14, newly formed blood microvessels converging toward the implant were counted by two observers in a double-blind fashion at 5x magnification under a stereomicroscope (STEMI-SR, x2/0.12; Zeiss) as described.

In the next data set the test system is TRAMP-C2 tumor grafts. The data set is described as follows: In vivo tumor therapy study, TRAMP-C2 tumors. Also on record: species or system C57BL/6 male mice. To be noted: s.c. TRAMP-C2 cells, i.p. 100 mg/kg every other day. As for the experimental part:
Eight week old C57BL/6 male mice were injected s.c. with 8×10^6 TRAMP-C2 cells, and eight week old athymic Nu/Nu male mice were injected s.c. with 5×10^6 S115 cells. All injections were performed in 200 μl total volume of PBS into the dorsolateral flank. When tumors were palpable treatment was performed every other day by i.p. injection of ARPCA, ARPVA (both at 100 mg/kg) or vehicle (PBS) in 100 μl final volume. Tumors were measured in two dimensions and tumor volume was calculated according to the formula V=(D × d^2)/2, where D and d are the major and minor perpendicular tumor diameters, respectively. At the end of the experimental procedure tumors were harvested, weighted and photographed.

A further data set addresses T1, FGF8b (Homo sapiens, UniProt P55075).
T1 sequence (P55075 23-215 isoform P55075-3 limits assumed): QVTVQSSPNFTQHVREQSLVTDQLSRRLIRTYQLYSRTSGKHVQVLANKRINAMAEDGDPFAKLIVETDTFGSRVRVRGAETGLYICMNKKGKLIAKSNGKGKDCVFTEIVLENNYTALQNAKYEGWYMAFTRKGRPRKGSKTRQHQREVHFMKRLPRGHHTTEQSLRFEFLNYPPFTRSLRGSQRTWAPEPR
As to the kind of experiment: ARPCA-FGF8 interaction by 2D 1H-13C HSQC NMR titration. It is filed as binding. Details: purchased ASLA (Riga, Latvia). To be noted: 190 μM ARPCA, FGF8b:ARPCA 0.5:1 and 1:1, intermediate to fast exchange. The protocol: NMR experiments were collected on samples containing 190 μM of ARPCA, dissolved in 50 mM potassium phosphate buffer pH 6.7 (90% H2O/10% D2O), 2.5 mM arginine, 10mM NaCl in the presence of variable concentrations of FGF8 corresponding to 1:0, 1:0.5, and 1:1 ARPCA:FGF8 ratios.
2D 1H-13C HSQC spectra were recorded with a sweep width of 10 ppm and 100 ppm.2k × 128 data points were used in proton and carbon dimensions, respectively. Data, acquired and processed using Topspin (Bruker Biospin), were apodized with a squared sinebell shifted by 90° and polynomial baseline correction. All NMR spectra were recorded at 298 K with a Bruker DMX spectrometer operating at 600 MHz.

The conditions of data set [2]: mouse, in vivo, ip, 100 mg/kg.
Experimental: Eight week-old C57BL/6 mice were treated i.p. with 100 mg/kg of ARPCA every other day for two weeks. During this period, animals were weighted for body weight variation analysis. At the end of treatment, whole blood and serum were harvested and analysed for blood components, biochemical serum parameters and circulating levels of FGF23. The serum levels of FGF23 were assessed by ELISA (Uscn Life Science Inc., Wuhan, PRC, Asia) according to manufacturer's instructions. Untreated mice were used as reference/control.
For another data set, the target named is T2, FGF4 (Homo sapiens, UniProt P08620).
T2 sequence (P08620 31-206): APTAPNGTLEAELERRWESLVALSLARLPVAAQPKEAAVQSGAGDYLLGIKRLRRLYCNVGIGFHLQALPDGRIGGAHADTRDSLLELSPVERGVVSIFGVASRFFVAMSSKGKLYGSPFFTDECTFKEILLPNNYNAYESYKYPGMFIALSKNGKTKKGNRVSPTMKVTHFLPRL
As to the kind of experiment: SPR analysis of FGF/ARPCA interaction, FGF4. It is filed as binding. Particulars: immobilized FGF4. For orientation: SPR reads the build-up and loss of mass on a sensor chip optically.

As to Ac-ARPCA-NH2 [ARPCA, Ac-ARPCA-NH2], in data set [1], the “neovascular response elicited by DHT-pretreated S115 cells on the CAM” value is recorded as “abolished”. The “growth of TRAMP-C2 tumor grafts, long-term assay” value in the data set with TRAMP-C2 tumor grafts is recorded as “inhibited the growth of TRAMP-C2 tumor grafts”. For the same substance, the “binding to FGF8b indicated by NMR titration” value on FGF8b is on record as “micromolar range”. Also, in data set [2], the “systemic toxic effect in treated animals” value was “absence of any systemic toxic effect”. The “Kd, FGF4” value at FGF4 is given as “n.b”.
